This passage reports IC50 results from patent EP2064211B1, “IMIDAZO[1,2-A]PYRIDINE HYDROXYMATE COMPOUNDS THAT ARE INHIBITORS OF HISTONE DEACETYLASE” (MEI Pharma, Inc., priority 2006, dated 2008).

The test system of experiment [1] is Colo205 cells. The experiment is described as follows: Cell-based proliferation assay for determination of GI50 values (CyQUANT). Particulars: Homo sapiens, COLO 205, compound treatment 96 h, concentration for 50% inhibition of cell growth, read-out: Gl50 (Colo205). Set-up: species or system Human. The method, then: Human cancer cell lines (e.g. Colo205) were obtained from ATCC. Colo205 cells were cultivated in RPMI 1640 containing 2 mM L-Glutamine, 5% FBS, 1.0 mM Na Pyruvate. Colo205 cells were seeded in 96-wells plate at 5000 cells per well. The plates were incubated at 37°C, 5% CO2, for 24 h. Cells were treated with compounds at various concentrations for 96 h. Cell growth was then monitored using CyQUANT® cell proliferation assay (Invitrogen Pte Ltd). Dose response curves were plotted to determine Gl50 values for the compounds using XL-fit (ID Business Solution, Emeryville, CA). Gl50 is defined as the concentration of compound required for 50% inhibition of cell growth.

In experiment [2] the target is T1, HDAC1 enzyme (Homo sapiens, UniProt Q13547).
T1 construct: Amplification of human HDAC1 coding region from this cDNA library was cloned separately into the baculovirus expression pDEST20 vector; made in house; host or cells: SF9 insect cells (baculovirus, pDEST20 vector)
Put plainly: In vitro HDAC assay for determination of IC50 values (BIOMOL fluorescent-based HDAC activity assay). The experiment is classed as biochemical. Particulars: recombinant GST-HDAC1, 500 uM Flur de lys substrate, room temperature 2 h; read-out: IC50 (HDAC 1). The protocol: Human cDNA library was prepared using cultured SW620 cells. Amplification of human HDAC1 coding region from this cDNA library was cloned separately into the baculovirus expression pDEST20 vector (GATEWAY Cloning Technology, Invitrogen Pte Ltd). The pDEST20-HDAC1 construct was confirmed by DNA sequencing. Recombinant baculovirus was prepared using the Bac-To-Bac method following the manufacturer's instruction (Invitrogen Pte Ltd).
Expression of GST-HDAC1 was done by infecting SF9 cells (Invitrogen Pte Ltd) with pDEST20-HDAC1 baculovirus at MOI=1 for 48 h. Soluble cell lysate was incubated with pre-equilibrated Glutathione Sepharose 4B beads (Amersham) at 4°C for 2 h. The beads were washed with PBS buffer for 3 times. The GST-HDAC1 protein was eluted by elution buffer containing 50 mM Tris, pH8.0, 150mM NaCl, 1% Triton X-100 and 10mM or 20mM reduced Glutathione. The purified GST-HDAC1 protein was dialyzed with HDAC storage buffer containing 10mM Tris, pH7.5, 100mM NaCl and 3mM MgCl2. 20% Glycerol was added to purified GST-HDAC1 protein before storage at -80°C.
The assay has been carried out in 96 well format and the BIOMOL fluorescent-based HDAC activity assay has been applied. The reaction composed of assay buffer, containing 25 mM Tris pH 7.5, 137 mM NaCl, 2.7 mM KCl, 1 mM MgCl2, 1 mg/ml BSA, tested compounds, an appropriate concentration of HDAC1 enzyme, 500 uM Flur de lys generic substrate for HDAC1 enzyme and subsequently was incubated at room temperature for 2 h. Flur de lys Developer was added and the reaction was incubated for 10 min. Briefly, deacetylation of the substrate sensitizes it to the developer, which then generates a fluorophore. The fluorophore is excited with 360 nm light and the emitted light (460 nm) is detected on a fluorometric plate reader (Tecan Ultra Microplate detection system, Tecan Group Ltd.).
The analytical software, Prism 4.0 (GraphPad Software Inc) has been used to generate IC50 from a series of data. IC50 is defined as the concentration of compound required for 50% inhibition of HDAC enzyme activity.

pIC50: −log10 of the molar value.

T1 sequence (Q13547 whole entry): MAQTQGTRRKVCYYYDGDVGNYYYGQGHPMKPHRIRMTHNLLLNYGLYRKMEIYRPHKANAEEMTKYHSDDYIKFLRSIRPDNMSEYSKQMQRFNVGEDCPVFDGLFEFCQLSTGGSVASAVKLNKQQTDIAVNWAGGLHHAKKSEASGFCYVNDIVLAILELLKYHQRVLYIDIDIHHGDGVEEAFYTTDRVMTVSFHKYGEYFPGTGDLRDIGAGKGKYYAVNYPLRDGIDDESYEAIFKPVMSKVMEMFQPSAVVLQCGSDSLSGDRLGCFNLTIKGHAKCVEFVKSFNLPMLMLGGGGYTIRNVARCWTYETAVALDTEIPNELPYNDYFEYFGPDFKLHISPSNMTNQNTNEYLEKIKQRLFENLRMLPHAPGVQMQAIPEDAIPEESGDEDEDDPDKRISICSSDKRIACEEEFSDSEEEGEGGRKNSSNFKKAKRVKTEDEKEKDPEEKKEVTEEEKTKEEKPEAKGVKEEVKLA

Take `CCCCc1nc2cc(C=CC(=O)NO)ccn2c1CN(CCC)CCC` [Compound 6, 3-(2-Butyl-3-dipropylaminomethyl-imidazo[1,2-a]pyridin-7-yl)-N-hydroxy-acrylamide]: the pIC50 in experiment [1] was 6.21; in experiment [2] it was 6.70.
Consider `CC(C)(C)CNCc1c(C(C)(C)C)nc2cc(C=CC(=O)NO)ccn12` [Compound 1, 3-{2-tert-Butyl-3-[(2,2-dimethyl-propylamino)-methyl]-imidazo[1,2-a]pyridin-7-yl}-N-hydroxy-acrylamide], for which the figures for the pIC50 in experiment [1] and in experiment [2] were 5.82 and 6.72, respectively.
The matching figures for `CCC(CC)NCc1c(C(C)(C)C)nc2cc(C=CC(=O)NO)ccn12` [Compound 2, 3-{2-tert-Butyl-3-[(1-ethyl-propylamino)-methyl]-imidazo[1,2-a]pyridin-7-yl}-N-hydroxy-acrylamide]: 5.82 and 6.80.
For `CCCc1nc2cc(C=CC(=O)NO)ccn2c1CN(CC)CCC(C)(C)C` [Compound 52, 3-(3-{[(3,3-Dimethyl-butyl)-ethyl-amino]-methyl}-2-propyl-imidazo[1,2-a]pyridin-7-yl)-N-hydroxy-acrylamide], in that order: 7.15 and 7.70.
Turning to `CCCCCc1nc2cc(C=CC(=O)NO)ccn2c1CN(CC)CCC(C)(C)C` [Compound 56, 3-(3-{[(3,3-Dimethyl-butyl)-ethyl-amino]-methyl}-2-pentyl-imidazo[1,2-a]pyridin-7-yl)-N-hydroxy-acrylamide], the pIC50 was 6.82 in experiment [1] and 7.52 in experiment [2].
`CC(C)CCN(C)Cc1c(C(C)(C)C)nc2cc(C=CC(=O)NO)ccn12` [Compound 36, 3-(2-tert-Butyl-3-{[methyl-(3-methyl-butyl)-amino]-methyl}-imidazo[1,2-a]pyridin-7-yl)-N-hydroxy-acrylamide]: the pIC50 in experiment [1] was 6.05; in experiment [2], 6.46.
For `CCN(CCC(C)C)Cc1c(C(C)(C)C)nc2cc(C=CC(=O)NO)ccn12` [Compound 20, 3-(2-tert-Butyl-3-{[ethyl-(3-methyl-butyl)-amino]-methyl}-imidazo[1,2-a]pyridin-7-yl)-N-hydroxy-acrylamide], in that order: 6.46 and 7.22.
The matching figures for `CCCN(Cc1c(C)nc2cc(C=CC(=O)NO)ccn12)CC(C)(C)C` [Compound 38, 3-(3-{[(2,2-Dimethyl-propyl)-propyl-amino]-methyl}-2-methyl-imidazo[1,2-a]pyridin-7-yl)-N-hydroxy-acrylamide]: 6.15 and 6.89.
Consider `CCCCCc1nc2cc(C=CC(=O)NO)ccn2c1CN(CC)CCCC` [Compound 54, 3-{3-[(Butyl-ethyl-amino)-methyl]-2-pentyl-imidazo[1,2-a]pyridin-7-yl}-N-hydroxy-acrylamide], for which the pIC50 in experiment [1] is 6.82; in experiment [2], 7.40.
For `CCCc1nc2cc(C=CC(=O)NO)ccn2c1CN(CC)CCC(C)C` [Compound 51, 3-(3-{[Ethyl-(3-methyl-butyl)-amino]-methyl}-2-propyl-imidazo[1,2-a]pyridin-7-yl)-N-hydroxy-acrylamide], in that order: 7.10 and 7.52.
For `CCC(CC)CN(C)Cc1c(C(C)(C)C)nc2cc(C=CC(=O)NO)ccn12` [Compound 35, 3-(2-tert-Butyl-3-{[(2-ethyl-butyl)-methyl-amino]-methyl}-imidazo[1,2-a]pyridin-7-yl)-N-hydroxy-acrylamide], in that order: 5.64 and 6.39.
In the case of `CCN(Cc1c(C(C)(C)C)nc2cc(C=CC(=O)NO)ccn12)CC(C)C` [Compound 17, 3-{2-tert-Butyl-3-[(ethyl-isobutyl-amino)-methyl]-imidazo[1,2-a]pyridin-7-yl}-N-hydroxy-acrylamide], the pIC50 in experiment [1] was 5.41; in experiment [2], 6.24.
For `CCCCCc1nc2cc(C=CC(=O)NO)ccn2c1CN(CC)CCC(C)C` [Compound 55, 3-(3-{(Ethyl-(3-methyl-butyl)-amino]-methyl}-2-pentyl-imidazo[1,2-a]pyridin-7-yl)-N-hydroxy-acrylamide], in that order: 6.85 and 7.52.
For `CCN(Cc1c(C(C)(C)C)nc2cc(C=CC(=O)NO)ccn12)CC1CCCCC1` [Compound 28, 3-{2-tert-Butyl-3-[(cyclohexylmethyl-ethyl-amino)-methyl]-imidazo[1,2-a]pyridin-7-yl}-N-hydroxy-acrylamide], in that order: 5.96 and 6.72.
The matching figures for `CCCCCCN(CC)Cc1c(C(C)(C)C)nc2cc(C=CC(=O)NO)ccn12` [Compound 21, 3-{2-tert-Butyl-3-[(ethyl-hexyl-amino)-methyl]-imidazo[1,2-a]pyridin-7-yl}-N-hydroxy-acrylamide]: 5.70 and 6.62.
For the compound `CCCCN(CCCC)Cc1c(C)nc2cc(/C=C/C(=O)NO)ccn12` [Compound 12, 3-(3-Dibutylaminomethyl-2-methyl-imidazo[1,2-a]pyridin-7-yl)-N-hyroxy-acrylamide], the pIC50 was 6.10 in experiment [1] and 7.10 in experiment [2].
The matching figures for `CCCN(Cc1c(C(C)(C)C)nc2cc(C=CC(=O)NO)ccn12)C(C)C` [Compound 32, 3-{2-tert-Butyl-3-[(isopropyl-propyl-amino)-methyl]-imidazo[1,2-a]pyridin-7-yl}-N-hydroxy-acrylamide]: 5.60 and 6.52.
Consider `CCCCN(CC)Cc1c(CCC)nc2cc(C=CC(=O)NO)ccn12` [Compound 57, 3-{3-[(Butyl-ethyl-amino)-methyl]-2-propyl-imidazo[1,2-a]pyridin-7-yl}-N-hydroxy-acrylamide], for which the pIC50 in experiment [1] is 6.80; in experiment [2], 7.40.
Regarding `CCC(CC)CN(CC)Cc1c(C)nc2cc(C=CC(=O)NO)ccn12` [Compound 31, 3-(3-{[Ethyl-(2-ethyl-butyl)-amino]-methyl}-2-methyl-imidazo[1,2-a]pyridin-7-yl)-N-hydroxy-acrylamide], the pIC50 was 7.30 in experiment [1] and 8.00 in experiment [2].
For `CCCCc1nc2cc(C=CC(=O)NO)ccn2c1CN(CC)CCC(C)CC(C)(C)C` (stereo not shown) [Compound 47, 3-(2-Butyl-3-{[ethyl-(3,5,5-trimethyl-hexyl)-amino]-methyl}-imidazo[1,2-a]pyridin-7-yl)-N-hydroxy-acrylamide], in that order: 6.28 and 6.70.
For the compound `CCCCc1nc2cc(C=CC(=O)NO)ccn2c1CN(CC)CCC(C)(C)C` [Compound 45, 3-(2-Butyl-3-{[(3,3-dimethyl-butyl)-ethyl-amino]-methyl)-imidazo[1,2-a]pyridin-7-yl)-N-hydroxy-acrylamide], the pIC50 in experiment [1] is 6.85; in experiment [2] it was 7.52.
For `CCC(CC)CN(CC)Cc1c(C(C)(C)C)nc2cc(C=CC(=O)NO)ccn12` [Compound 24, 3-(2-tert-Butyl-3-{[ethyl-(2-ethyl-butyl)-amino]-methyl}-imidazo[1,2-a]pyridin-7-yl)-N-hydroxy-acrylamide], in that order: 6.01 and 6.72.
For `CCCCc1nc2cc(C=CC(=O)NO)ccn2c1CN(C)C` [Compound 14, 3-(2-Butyl-3-dimethylaminomethyl-imidazo[1,2-a]pyridin-7-yl)-N-hydroxy-acrylamide], in that order: 6.64 and 7.40.
